How the values were obtained:
MCF-7 cells = experiment: In vitro test of cell activity (MCF-7 cells, insulin stimulation, ELISA-One fluorescence); assay type: cell-based; details: Homo sapiens, MCF7, MCF-7 cells; read-out: IC50 p-AKT
How it was run: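 MCF-7 cells, seeded at 2.5×10^4/well in 10% FBS medium, were given compound in serum-free medium for 2 h at one concentration (screen) or a series (IC50). Insulin stimulation followed at […] final for 30 min; lysates assayed by ELISA-One sandwich immunoassay with fluorescence read-out.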

PI3K (p110α) kinase = target: T1, PI3K (p110α) kinase (Homo sapiens, UniProt P42336); experiment: PI3K (p110α) kinase assay (PI3K HTRF Assay); assay type: biochemical; details: in vitro enzyme activity assay, 10 μM PIP2, read-out: PI3K (p110α) enzyme activity_IC50
T1 construct: made in house
T1 sequence (P42336 whole entry): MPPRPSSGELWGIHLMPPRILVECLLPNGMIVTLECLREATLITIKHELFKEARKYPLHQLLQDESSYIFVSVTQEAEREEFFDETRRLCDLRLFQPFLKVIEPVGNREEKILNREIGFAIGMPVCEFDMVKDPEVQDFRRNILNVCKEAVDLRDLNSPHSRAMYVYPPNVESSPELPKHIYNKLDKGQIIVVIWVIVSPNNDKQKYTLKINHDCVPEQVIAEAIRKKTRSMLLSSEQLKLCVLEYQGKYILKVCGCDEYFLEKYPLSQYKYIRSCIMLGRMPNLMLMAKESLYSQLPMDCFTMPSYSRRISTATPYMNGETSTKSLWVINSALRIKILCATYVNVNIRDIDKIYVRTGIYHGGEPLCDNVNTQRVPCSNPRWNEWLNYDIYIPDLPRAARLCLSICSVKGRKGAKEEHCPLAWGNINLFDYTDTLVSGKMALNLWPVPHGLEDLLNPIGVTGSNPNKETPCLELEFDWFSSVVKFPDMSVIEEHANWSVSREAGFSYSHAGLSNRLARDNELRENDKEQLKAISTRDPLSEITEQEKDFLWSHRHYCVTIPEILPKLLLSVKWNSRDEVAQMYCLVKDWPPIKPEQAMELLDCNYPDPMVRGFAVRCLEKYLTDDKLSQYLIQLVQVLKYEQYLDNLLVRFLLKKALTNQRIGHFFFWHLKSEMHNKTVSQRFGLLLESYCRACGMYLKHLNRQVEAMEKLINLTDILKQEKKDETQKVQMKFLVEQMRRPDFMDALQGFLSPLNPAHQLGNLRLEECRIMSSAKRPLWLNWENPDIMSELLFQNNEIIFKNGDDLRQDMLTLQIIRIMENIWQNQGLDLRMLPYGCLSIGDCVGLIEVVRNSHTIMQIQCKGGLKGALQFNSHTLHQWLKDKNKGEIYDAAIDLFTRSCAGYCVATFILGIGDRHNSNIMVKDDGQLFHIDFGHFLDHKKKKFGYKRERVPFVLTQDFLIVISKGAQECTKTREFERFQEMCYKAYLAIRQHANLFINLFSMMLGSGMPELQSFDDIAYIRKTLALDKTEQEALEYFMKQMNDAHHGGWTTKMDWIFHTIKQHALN
Text: Conclusion: The compounds of the present invention have significant inhibitory effect on mTOR/PI3K. Example In Vitro Enzyme Activity Assay 1. The experimental procedures and methods of PI3K (p110α) kinase assay: 1) Experimental Objective
The objective was to evaluate the inhibitory effect of the subject samples on PI3K (p110α) kinase activity at molecular level.
PerkinElmer Envision 2104 Multilabel Reader.
PI 3-Kinase HTRF Assay (384 wells) was purchased from Upstate (Millipore) company: PI3K (p110α) kinase was made in our lab.
c) Experimental procedures
Each solution was prepared according to the instructions provided in the Kinase PI 3-Kinase HTRF Assay. The kinase reaction was carried out in white 384-well plates (Proxiplate-384 plus), 0.5 μl of DMSO (the concentration was consistent with the highest concentration of DMSO for the test compounds) was added to each of the two control wells with and without enzyme, and then 0.5 μl of a series of different concentrations of the test compounds was added to each well to be tested. The kinase reaction liquid (10 μM substrate PIP2, 0.5 ng PI3K (p110α)) was added to the control well containing enzyme and the test wells, while only working reaction liquid (10 μM substrate PIP2) was added to the control well without enzyme, and finally, 5 μM ATP working reaction liquid was added to activate the reaction. After the reaction was carried out at room temperature for 30 min, the stop solution was added to each well to terminate the kinase reaction. After the mixture was fully mixed, the detection liquid was added to each well and fully mixed. The plate was sealed with Parafilm and placed in the dark. After incubated overnight, the mixture was detected.
The IC50 value was calculated through the GraphPad software after plotting the relative inhibitory rate versus concentration.

SMILES | IC50 (MCF-7 cells) | IC50 (PI3K (p110α) kinase)
COc1ncc(-c2ccc3ncc(OCC4COC4)c(=O)n3c2)cc1NS(=O)(=O)c1ccc(C)cc1C [compound 251] | 100 to 250 nM | ≤ 1 nM
COCCOc1cnc2ccc(-c3cnc(OC)c(NS(=O)(=O)c4ccc(F)cc4C)c3)cn2c1=O [compound 252] | > 250 nM | 1 to 10 nM
COCCOc1cnc2ccc(-c3cnc(OC)c(NS(=O)(=O)c4ccccc4Cl)c3)cn2c1=O [compound 253] | ≤ 50 nM | ≤ 1 nM
COc1ncc(-c2ccc3ncc(OCC4COC4)c(=O)n3c2)cc1NS(=O)(=O)c1ccc(F)cc1C [compound 255] | 100 to 250 nM | ≤ 1 nM
COc1ncc(-c2ccc3ncc(OCC4COC4)c(=O)n3c2)cc1NS(=O)(=O)c1ccccc1Cl [compound 257] | ≤ 50 nM | ≤ 1 nM
COCCOc1cnc2ccc(-c3cnc(OC)c(NS(=O)(=O)c4cc(F)ccc4C)c3)cn2c1=O [compound 260] | 100 to 250 nM | ≤ 1 nM
COCCOc1cnc2ccc(-c3cnc(OC)c(NS(=O)(=O)c4cccc(Cl)c4C)c3)cn2c1=O [compound 261] | 50 to 100 nM | ≤ 1 nM
COCCOc1cnc2ccc(-c3cnc(OC)c(NS(=O)(=O)c4cc(C)ccc4C)c3)cn2c1=O [compound 262] | 50 to 100 nM | ≤ 1 nM
COCCOc1cnc2ccc(-c3cnc(OC)c(NS(=O)(=O)c4ccc(Cl)cc4Cl)c3)cn2c1=O [compound 263] | 50 to 100 nM | ≤ 1 nM
COCCOc1cnc2ccc(-c3cnc(OC)c(NS(=O)(=O)c4c(F)cccc4F)c3)cn2c1=O [compound 265] | 100 to 250 nM | ≤ 1 nM
COCCOc1cnc2ccc(-c3cnc(OC)c(NS(=O)(=O)c4c(C)cc(C)cc4C)c3)cn2c1=O [compound 268] | 100 to 250 nM | 1 to 10 nM
COCCOc1cnc2ccc(-c3cnc(OC)c(NS(=O)(=O)c4ccc(Cl)cc4F)c3)cn2c1=O [compound 271] | 50 to 100 nM | ≤ 1 nM
COCCOc1cnc2ccc(-c3cnc(OC)c(NS(=O)(=O)c4ccc(C)cc4Cl)c3)cn2c1=O [compound 275] | ≤ 50 nM | ≤ 1 nM
COc1ncc(-c2ccc3ncc(OCC4COC4)c(=O)n3c2)cc1NS(=O)(=O)c1ccc(C)cc1Cl [compound 277] | ≤ 50 nM | ≤ 1 nM
COCCOc1cnc2ccc(-c3cnc(OC)c(NS(=O)(=O)n4nc(C)cc4C)c3)cn2c1=O [compound 283] |  | 1 to 10 nM
COCCOc1cnc2ccc(-c3cnc(OC)c(NS(=O)(=O)c4ccc(F)cc4C4CC4)c3)cn2c1=O [compound 284] |  | 1 to 10 nM

Other lines, results leading:

IC50 (MCF-7 cells) | IC50 (PI3K (p110α) kinase) | SMILES
100 to 250 nM | ≤ 1 nM | COc1ncc(-c2ccc3ncc(OCCOCC(F)(F)F)c(=O)n3c2)cc1NS(=O)(=O)c1ccc(F)cc1Cl [compound 242]
≤ 50 nM | ≤ 1 nM | COc1ncc(-c2ccc3ncc(OCCCF)c(=O)n3c2)cc1NS(=O)(=O)c1ccc(F)cc1Cl [compound 243]
50 to 100 nM | ≤ 1 nM | COCCOc1cnc2ccc(-c3cnc(OC)c(NS(=O)(=O)c4ccc(C)cc4C)c3)cn2c1=O [compound 244]
≤ 50 nM | ≤ 1 nM | COCCOc1cnc2ccc(-c3cnc(OC)c(NS(=O)(=O)c4c(Cl)cccc4Cl)c3)cn2c1=O [compound 245]
100 to 250 nM | ≤ 1 nM | COCCOc1cnc2ccc(-c3cnc(OC)c(NS(=O)(=O)c4ccc(F)c(F)c4)c3)cn2c1=O [compound 246]
100 to 250 nM | ≤ 1 nM | COCCOc1cnc2ccc(-c3cnc(OC)c(NS(=O)(=O)c4cccc(C)c4)c3)cn2c1=O [compound 247]
≤ 50 nM | ≤ 1 nM | COc1ncc(-c2ccc3ncc(OCC4COC4)c(=O)n3c2)cc1NS(=O)(=O)c1c(Cl)cccc1Cl [compound 249]
50 to 100 nM | ≤ 1 nM | COc1ncc(-c2ccc3ncc(OCC4COC4)c(=O)n3c2)cc1NS(=O)(=O)c1ccc(F)c(F)c1 [compound 250]

From patent US9868737B2, “Pyridino[1,2-A]pyrimidone analogue used as MTOR/P13K inhibitor” (CISEN PHARMACEUTICAL CO., LTD., priority 2014, dated 2018)
